Earlier results in patent publication US7867716B2 (priority 2004, dated 2011).

What was measured:
[1] = target: glucoamylase (Aspergillus niger, UniProt P69328)
[2] = target: WT-αHL (Staphylococcus aureus, UniProt P09616)
Sequence of WT-αHL (P09616 27-319 limits assumed): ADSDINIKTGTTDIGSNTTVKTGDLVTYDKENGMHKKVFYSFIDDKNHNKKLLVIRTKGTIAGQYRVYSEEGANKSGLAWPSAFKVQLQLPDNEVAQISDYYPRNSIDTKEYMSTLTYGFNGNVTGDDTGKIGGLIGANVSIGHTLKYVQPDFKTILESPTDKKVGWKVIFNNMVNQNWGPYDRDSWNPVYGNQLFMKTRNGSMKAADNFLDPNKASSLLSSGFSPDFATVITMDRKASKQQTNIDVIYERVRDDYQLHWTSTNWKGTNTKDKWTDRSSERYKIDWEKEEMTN

Sequence of glucoamylase (P69328 25-640 limits assumed): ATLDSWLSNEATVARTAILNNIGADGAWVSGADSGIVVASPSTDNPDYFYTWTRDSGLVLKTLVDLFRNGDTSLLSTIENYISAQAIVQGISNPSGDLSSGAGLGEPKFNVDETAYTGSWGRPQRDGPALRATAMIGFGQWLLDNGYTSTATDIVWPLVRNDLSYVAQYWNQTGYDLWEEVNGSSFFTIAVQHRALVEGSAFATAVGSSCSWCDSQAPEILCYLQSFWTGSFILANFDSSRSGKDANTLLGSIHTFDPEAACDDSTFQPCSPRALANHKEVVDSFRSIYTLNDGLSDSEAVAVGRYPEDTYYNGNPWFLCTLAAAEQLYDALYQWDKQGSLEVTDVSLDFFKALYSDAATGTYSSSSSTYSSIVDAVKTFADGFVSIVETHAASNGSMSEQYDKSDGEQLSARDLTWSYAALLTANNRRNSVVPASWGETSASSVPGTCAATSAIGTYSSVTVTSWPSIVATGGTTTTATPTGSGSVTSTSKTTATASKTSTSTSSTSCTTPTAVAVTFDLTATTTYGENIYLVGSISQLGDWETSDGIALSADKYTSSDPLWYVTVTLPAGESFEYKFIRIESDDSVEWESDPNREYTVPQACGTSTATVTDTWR

## β-cyclodextrin [βCD]
[1]
  ΔS°: −90 J mol^−1 K^−1
[2]
  Kf (trans): 300 M⁻¹
  formation constant Kf for WT-αHL with βCD: 290 M⁻¹
